Inhibition data for 28 compounds are collected here from patent publication US11731976B2, “3-(ethoxydifluoromethyl)-6-(5-fluoro-6-(2,2,2-trifluoroethoxy)pyridin-3-yl)-[1,2,4]triazolo[4,3-a]pyridine as an ion channel modulator” (Praxis Precision Medicines, Inc., priority 2018, dated 2023).

One may read the inhibition as the drop in the measured response relative to a control, in per cent.

T1 sequence (Q9UQD0 whole entry): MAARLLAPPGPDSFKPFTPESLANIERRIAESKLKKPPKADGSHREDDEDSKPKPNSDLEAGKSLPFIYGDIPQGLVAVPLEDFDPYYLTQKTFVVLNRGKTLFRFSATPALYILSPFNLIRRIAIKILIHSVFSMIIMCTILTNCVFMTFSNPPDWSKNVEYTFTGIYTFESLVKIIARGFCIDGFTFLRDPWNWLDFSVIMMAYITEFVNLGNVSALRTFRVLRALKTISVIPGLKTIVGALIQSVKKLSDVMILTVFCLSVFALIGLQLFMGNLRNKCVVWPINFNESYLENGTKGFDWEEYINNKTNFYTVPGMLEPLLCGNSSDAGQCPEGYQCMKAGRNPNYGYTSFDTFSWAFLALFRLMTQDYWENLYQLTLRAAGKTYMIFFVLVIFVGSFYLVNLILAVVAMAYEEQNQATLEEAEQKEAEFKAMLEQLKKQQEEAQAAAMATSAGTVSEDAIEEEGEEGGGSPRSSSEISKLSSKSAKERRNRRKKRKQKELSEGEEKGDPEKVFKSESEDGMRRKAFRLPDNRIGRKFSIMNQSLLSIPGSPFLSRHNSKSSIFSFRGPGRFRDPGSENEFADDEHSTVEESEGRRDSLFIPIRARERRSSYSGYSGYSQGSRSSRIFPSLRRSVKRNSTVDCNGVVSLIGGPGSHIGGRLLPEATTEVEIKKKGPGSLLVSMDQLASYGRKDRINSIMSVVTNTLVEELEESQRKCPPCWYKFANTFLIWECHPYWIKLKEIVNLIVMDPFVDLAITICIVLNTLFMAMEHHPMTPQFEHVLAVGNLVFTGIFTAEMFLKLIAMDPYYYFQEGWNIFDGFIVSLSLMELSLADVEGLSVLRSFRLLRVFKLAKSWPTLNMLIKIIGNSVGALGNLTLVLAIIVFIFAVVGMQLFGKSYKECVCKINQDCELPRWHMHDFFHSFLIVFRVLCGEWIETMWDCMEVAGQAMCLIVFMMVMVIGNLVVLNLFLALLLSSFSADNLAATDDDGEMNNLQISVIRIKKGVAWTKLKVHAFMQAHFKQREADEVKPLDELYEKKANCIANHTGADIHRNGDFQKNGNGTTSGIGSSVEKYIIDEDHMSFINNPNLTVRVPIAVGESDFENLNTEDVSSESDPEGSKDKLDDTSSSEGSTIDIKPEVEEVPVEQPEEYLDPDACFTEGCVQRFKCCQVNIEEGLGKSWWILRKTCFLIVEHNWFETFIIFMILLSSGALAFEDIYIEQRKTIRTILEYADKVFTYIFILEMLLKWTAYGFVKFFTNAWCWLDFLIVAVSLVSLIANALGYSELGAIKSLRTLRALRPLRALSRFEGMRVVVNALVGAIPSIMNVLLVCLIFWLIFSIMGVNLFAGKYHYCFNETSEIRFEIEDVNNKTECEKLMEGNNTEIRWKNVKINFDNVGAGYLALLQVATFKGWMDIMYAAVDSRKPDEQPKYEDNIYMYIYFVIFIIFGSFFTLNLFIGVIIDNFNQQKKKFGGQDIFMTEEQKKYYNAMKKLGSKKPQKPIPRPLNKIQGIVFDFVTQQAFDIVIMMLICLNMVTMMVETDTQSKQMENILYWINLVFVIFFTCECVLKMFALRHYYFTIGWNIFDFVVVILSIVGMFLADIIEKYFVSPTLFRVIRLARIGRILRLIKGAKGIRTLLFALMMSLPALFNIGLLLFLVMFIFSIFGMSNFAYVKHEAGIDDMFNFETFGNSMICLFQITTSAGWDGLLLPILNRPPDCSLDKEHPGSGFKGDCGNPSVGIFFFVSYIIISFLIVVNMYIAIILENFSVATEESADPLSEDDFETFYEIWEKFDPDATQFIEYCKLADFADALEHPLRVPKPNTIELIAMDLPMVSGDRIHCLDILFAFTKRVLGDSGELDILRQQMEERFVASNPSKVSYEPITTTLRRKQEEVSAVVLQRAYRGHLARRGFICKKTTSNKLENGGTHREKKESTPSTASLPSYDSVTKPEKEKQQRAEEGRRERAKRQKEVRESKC

The assay has as its target T1, human NaV1.6 (hNaV1.6) (Homo sapiens, UniProt Q9UQD0).
T1 construct: expressed in transfected cells; host or cells: HEK-293
The assay can be described thus: Modulation of late sodium current (INaL), PatchXpress electrophysiology, HEK-293 cells expressing hNaV1.6. It is filed as cell-based. The note with it: HEK293, late current evoked by 300 nM ATX-II, read-out: NaV 1.6 Assay Data: percent inhibition of INaL at hNaV1.6. How it is done: Functional characterization of exemplary compounds to modulate INaL expressed by the NaV1.6 voltage-gated sodium channel was accomplished using the PatchXpress™ high throughput electrophysiology platform (Molecular Devices, Sunnyvale, Calif.). HEK-293 cells expressing recombinant, human NaV1.6 (hNaV1.6) were grown in DMEM/high-glucose Dulbecco's modified, 10% FBS, 2 mM sodium pyruvate, 10 mM HEPES and 400 μg/mL G418. Cells were grown to 50%-80% confluency prior to harvesting. Trypsinized cells were washed, allowed to recover for 1 hour and then resuspended in extracellular recording solution at a concentration of 1×10^6 cells/ml. The onboard liquid handling facility of the PatchXpress was used for dispensing cells and applying test compounds. NaV late currents were evoked by the application of 300 nM ATX-II. INaL was evoked by depolarizing pulses to 0 mV for 200 ms from a non-inactivating holding potential (e.g., −120 mV) at a frequency of 0.1 Hz. INaL amplitude and stability were determined by analyzing the mean current amplitude over the final 20 ms of the test pulse. Following steady state block with exemplary compounds (e.g., as described herein), a Na+ free solution containing an impermeant cation (e.g., Choline or NDMG) was added to confirm the identify of the sodium current. Percent steady-state inhibition of INaL was calculated as: [(INaL_compound)/(INaL_control)]*100, where INaL_compound and INaL_control represent INaL recorded in the presence or absence of compound, respectively.
In the case of `CCOC(F)(F)c1nnc2ccc(-c3cnc(O[C@@H](C)C(F)(F)F)c(F)c3)cn12` [Compound 32, 3-[ethoxy(difluoro)methyl]-6-[5-fluoro-6-[(1S)-2,2,2-trifluoro-1-methyl-ethoxy]-3-pyridyl]-[1,2,4]triazolo[4,3-a]pyridine], the inhibition at 1 µM is over 70%.

For `CCOC(F)(F)c1nnc2cnc(-c3cnc(O[C@@H](C)C(F)(F)F)c(F)c3)cn12` [Compound 33, 3-[ethoxy(difluoro)methyl]-6-[5-fluoro-6-[(1S)-2,2,2-trifluoro-1-methyl-ethoxy]-3-pyridyl]-[1,2,4]triazolo[4,3-a]pyrazine], the inhibition at 1 µM was over 70%.

Consider `CCOC(F)(F)c1nnc2ccc(-c3cnc(O[C@H](C)C(F)(F)F)c(F)c3)cn12` [Compound 34, 3-[ethoxy(difluoro)methyl]-6-[5-fluoro-6-[(1R)-2,2,2-trifluoro-1-methyl-ethoxy]-3-pyridyl]-[1,2,4]triazolo[4,3-a]pyridine], for which the inhibition at 1 µM was over 70%.

For `COCc1nnc2ccc(-c3cnc(OCC(F)(F)F)c(F)c3)nn12` [Compound 35, 6-[5-fluoro-6-(2,2,2-trifluoroethoxy)-3-pyridyl]-3-(methoxymethyl)-[1,2,4]triazolo[4,3-b]pyridazine], the inhibition at 1 µM was under 30%.

Consider `C[C@@H](Oc1ncc(-c2ccc3nnc(C(F)(F)OC4CC4)n3c2)cc1F)C(F)(F)F` [Compound 36, 3-[cyclopropoxy(difluoro)methyl]-6-[5-fluoro-6-[(1R)-2,2,2-trifluoro-1-methyl-ethoxy]-3-pyridyl]-[1,2,4]triazolo[4,3-a]pyridine], for which the inhibition at 1 µM is over 70%.

Take `C[C@H](Oc1ncc(-c2ccc3nnc(C(F)(F)OC4CC4)n3c2)cc1F)C(F)(F)F` [Compound 37, 3-[cyclopropoxy(difluoro)methyl]-6-[5-fluoro-6-[(1S)-2,2,2-trifluoro-1-methyl-ethoxy]-3-pyridyl]-[1,2,4]triazolo[4,3-a]pyridine]: the inhibition at 1 µM was over 70%.

With `COCc1nnc2cnc(-c3cnc(O[C@@H](C)C(F)(F)F)c(F)c3)cn12` [Compound 38, 6-[5-fluoro-6-[(1S)-2,2,2-trifluoro-1-methyl-ethoxy]-3-pyridyl]-3-(methoxymethyl)-[1,2,4]triazolo[4,3-a]pyrazine], the inhibition at 1 µM was in the range of 30 to 70%.

For the compound `COCc1nnc2cnc(-c3cnc(OCC(F)(F)F)c(F)c3)cn12` [Compound 39, 6-[5-fluoro-6-(2,2,2-trifluoroethoxy)-3-pyridyl]-3-(methoxymethyl)-[1,2,4]triazolo[4,3-a]pyrazine], the inhibition at 1 µM is under 30%.

As for `COCc1nnc2ccc(-c3cnc(O[C@H](C)C(F)(F)F)c(F)c3)cn12` [Compound 40, 6-[5-fluoro-6-[(1R)-2,2,2-trifluoro-1-methyl-ethoxy]-3-pyridyl]-3-(methoxymethyl)-[1,2,4]triazolo[4,3-a]pyridine], the inhibition at 1 µM is under 30%.

Consider `CCOC(F)(F)c1nnc2ccc(-c3cnc(O[C@@H](C)C(F)(F)F)c(F)c3)nn12` [Compound 41, 3-[ethoxy(difluoro)methyl]-6-[5-fluoro-6-[(1S)-2,2,2-trifluoro-1-methyl-ethoxy]-3-pyridyl]-[1,2,4]triazolo[4,3-b]pyridazine], for which the inhibition at 1 µM is over 70%.

For the compound `CCOC(F)(F)c1nnc2ccc(-c3cnc(O[C@H](C)C(F)(F)F)c(F)c3)nn12` [Compound 42, 3-[ethoxy(difluoro)methyl]-6-[5-fluoro-6-[(1R)-2,2,2-trifluoro-1-methyl-ethoxy]-3-pyridyl]-[1,2,4]triazolo[4,3-b]pyridazine], the inhibition at 1 µM is over 70%.

For `COCc1nnc2ccc(-c3cnc(O[C@@H](C)C(F)(F)F)c(F)c3)cn12` [Compound 43, 6-[5-fluoro-6-[(1S)-2,2,2-trifluoro-1-methyl-ethoxy]-3-pyridyl]-3-(methoxymethyl)-[1,2,4]triazolo[4,3-a]pyridine], the inhibition at 1 µM was 30 to 70%.

Take `COCc1nnc2ccc(-c3cnc(O[C@@H](C)C(F)(F)F)c(F)c3)nn12` [Compound 44, 6-[5-fluoro-6-[(1S)-2,2,2-trifluoro-1-methyl-ethoxy]-3-pyridyl]-3-(methoxymethyl)-[1,2,4]triazolo[4,3-b]pyridazine]: the inhibition at 1 µM is 30 to 70%.

Consider `CC(C)COC(F)(F)c1nnc2cnc(-c3cnc(O[C@@H](C)C(F)(F)F)c(F)c3)cn12` [Compound 45, 3-[difluoro(isobutoxy)methyl]-6-[5-fluoro-6-[(1S)-2,2,2-trifluoro-1-methyl-ethoxy]-3-pyridyl]-[1,2,4]triazolo[4,3-a]pyrazine], for which the inhibition at 1 µM was over 70%.

`COCc1nnc2ccc(-c3cnc(O[C@H](C)C(F)(F)F)c(F)c3)nn12` [Compound 46, 6-[5-fluoro-6-[(1R)-2,2,2-trifluoro-1-methyl-ethoxy]-3-pyridyl]-3-(methoxymethyl)-[1,2,4]triazolo[4,3-b]pyridazine]: the inhibition at 1 µM fell in the range of 30 to 70%.

As to `CC(C)COC(F)(F)c1nnc2ccc(-c3cnc(O[C@@H](C)C(F)(F)F)c(F)c3)nn12` [Compound 47, 3-[difluoro(isobutoxy)methyl]-6-[5-fluoro-6-[(1S)-2,2,2-trifluoro-1-methyl-ethoxy]-3-pyridyl]-[1,2,4]triazolo[4,3-b]pyridazine], the inhibition at 1 µM was over 70%.

For `CC(C)COC(F)(F)c1nnc2ccc(-c3cnc(O[C@H](C)C(F)(F)F)c(F)c3)nn12` [Compound 49, 3-[difluoro(isobutoxy)methyl]-6-[5-fluoro-6-[(1R)-2,2,2-trifluoro-1-methyl-ethoxy]-3-pyridyl]-[1,2,4]triazolo[4,3-b]pyridazine], the inhibition at 1 µM was over 70%.

In the case of `CCOCc1nnc2cnc(-c3cnc(O[C@@H](C)C(F)(F)F)c(F)c3)cn12` [Compound 50, 3-(ethoxymethyl)-6-[5-fluoro-6-[(1S)-2,2,2-trifluoro-1-methyl-ethoxy]-3-pyridyl]-[1,2,4]triazolo[4,3-a]pyrazine], the inhibition at 1 µM was over 70%.

Take `C[C@@H](Oc1ncc(-c2cn3c(C(F)(F)OC4CC4)nnc3cn2)cc1F)C(F)(F)F` [Compound 51, 3-[cyclopropoxy(difluoro)methyl]-6-[5-fluoro-6-[(1R)-2,2,2-trifluoro-1-methyl-ethoxy]-3-pyridyl]-[1,2,4]triazolo[4,3-a]pyrazine]: the inhibition at 1 µM was over 70%.

`CCOCc1nnc2cnc(-c3cnc(O[C@H](C)C(F)(F)F)c(F)c3)cn12` [Compound 52, 3-(ethoxymethyl)-6-[5-fluoro-6-[(1R)-2,2,2-trifluoro-1-methyl-ethoxy]-3-pyridyl]-[1,2,4]triazolo[4,3-a]pyrazine]: the inhibition at 1 µM lay within 30 to 70%.

Turning to `COC(F)(F)c1nnc2cnc(-c3ccc(OC4(C(F)(F)F)CCC4)nc3)cn12` [Compound 57], the inhibition at 1 µM was over 70%.

For the compound `COC(F)(F)c1nnc2cnc(-c3cnc(O[C@@H](C)C(F)(F)F)c(F)c3)c(C)n12` [Compound 58, 3-[difluoro(methoxy)methyl]-6-[5-fluoro-6-[(1S)-2,2,2-trifluoro-1-methyl-ethoxy]-3-pyridyl]-5-methyl-[1,2,4]triazolo[4,3-a]pyrazine], the inhibition at 1 µM is over 70%.

Take `COC(F)(F)c1nnc2cnc(-c3cnc(O[C@H](C)C(F)(F)F)c(F)c3)c(C)n12` [Compound 60, 3-[difluoro(methoxy)methyl]-6-[5-fluoro-6-[(1R)-2,2,2-trifluoro-1-methyl-ethoxy]-3-pyridyl]-5-methyl-[1,2,4]triazolo[4,3-a]pyrazine]: the inhibition at 1 µM was 30 to 70%.

With `COC(F)(F)c1nnc2cnc(-c3cnc(OCC(F)(F)F)c(F)c3)c(C)n12` [Compound 61, 3-[difluoro(methoxy)methyl]-6-[5-fluoro-6-(2,2,2-trifluoroethoxy)-3-pyridyl]-5-methyl-[1,2,4]triazolo[4,3-a]pyrazine], the inhibition at 1 µM lay in the range of 30 to 70%.

Turning to `C[C@H](Oc1ncc(-c2cn3c(C(F)(F)OC4CC4)nnc3cn2)cc1F)C(F)(F)F` [Compound 63, 3-[cyclopropoxy(difluoro)methyl]-6-[5-fluoro-6-[(1S)-2,2,2-trifluoro-1-methyl-ethoxy]-3-pyridyl]-[1,2,4]triazolo[4,3-a]pyrazine], the inhibition at 1 µM was over 70%.

Turning to `CCOC(F)(F)c1nnc2cnc(-c3cnc(OCc4ccccc4)c(F)c3)cn12` [Compound 64, 6-(6-benzyloxy-5-fluoro-3-pyridyl)-3-[ethoxy(difluoro)methyl]-[1,2,4]triazolo[4,3-a]pyrazine], the inhibition at 1 µM was over 70%.

For `COC(F)(F)c1nnc2cc(C)c(-c3cnc(OCC(F)(F)F)c(F)c3)nn12` [Compound 65, 3-[difluoro(methoxy)methyl]-6-[5-fluoro-6-(2,2,2-trifluoroethoxy)-3-pyridyl]-7-methyl-[1,2,4]triazolo[4,3-b]pyridazine], the inhibition at 1 µM was 30 to 70%.

As for `COC(F)(F)c1nnc2cc(C)c(-c3cnc(O[C@H](C)C(F)(F)F)c(F)c3)nn12` [Compound 66, 3-[difluoro(methoxy)methyl]-6-[5-fluoro-6-[(1R)-2,2,2-trifluoro-1-methyl-ethoxy]-3-pyridyl]-7-methyl-[1,2,4]triazolo[4,3-b]pyridazine], the inhibition at 1 µM is over 70%.
